Reference: patent US20230295260A1, “GLP RECEPTOR AGONISTS” (HEPTARES THERAPEUTICS LIMITED, priority 2020, published 2023)
Non-standard residues stand in square brackets, D forms with d. Residues, ends and D or L forms follow the SMILES beside them. *: point of attachment. Malonyl(2,2-Me2,histaminyl) = CC(C)(C(=O)NCCc1cnc[nH]1)C(=O)*; Ala(1H-tetrazol-5-yl) = N[C@@H](Cc1nnn[nH]1)C(=O)O; αMeF = C[C@](N)(Cc1ccccc1)C(=O)O; αMeL = CC(C)C[C@](C)(N)C(=O)O; Nle = CCCC[C@H](N)C(=O)O; Aib = CC(C)(N)C(=O)O; Alloc = C=CCOC(=O)*

Assays:
human GLP1 receptor = target: T1, human GLP1 receptor (Homo sapiens, UniProt P43220); test: cAMP accumulation assay (HTRF), functional agonism of human GLP1 receptor in HEK cells; assay type: cell-based; conditions: HEK cells, human GLP1 receptor BacMam, 45 min 37° C.; for Emax: HEK293, read-out: Human GLP-1R agonist cAMP Emax; for EC50: read-out: Human GLP-1R agonist cAMP pEC50 (converted)
T1 construct: expressed in transfected cells; host or cells: HEK cells, BacMam virus transduction
T1 sequence (P43220 24-463): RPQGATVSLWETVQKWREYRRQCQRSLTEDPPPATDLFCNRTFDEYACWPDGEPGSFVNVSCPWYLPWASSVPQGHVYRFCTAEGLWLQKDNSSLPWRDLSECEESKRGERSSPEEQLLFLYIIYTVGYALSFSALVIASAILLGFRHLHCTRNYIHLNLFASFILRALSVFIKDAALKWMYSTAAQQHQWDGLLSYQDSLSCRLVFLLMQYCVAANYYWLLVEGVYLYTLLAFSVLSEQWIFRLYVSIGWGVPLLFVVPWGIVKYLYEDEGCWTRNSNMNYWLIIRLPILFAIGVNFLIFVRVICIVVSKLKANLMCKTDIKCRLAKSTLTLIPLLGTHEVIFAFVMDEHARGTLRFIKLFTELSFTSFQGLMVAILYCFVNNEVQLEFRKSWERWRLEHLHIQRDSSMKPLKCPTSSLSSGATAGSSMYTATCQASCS

human GLP2 receptor = target: T2, human GLP2 receptor (Homo sapiens, UniProt O95838); test: cAMP accumulation assay (HTRF), functional agonism of human GLP2 receptor in HEK cells; conditions: for Emax: HEK293, read-out: Human GLP-2R agonist cAMP Emax;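 on all read-outs here: HEK cells transduced via BacMam to express human GLP2 receptor, agonist-stimulated cAMP measured by HTRF after 45 min at 37 °C in HBSS with 0.5 mM IBMX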
T2 sequence (O95838 1-553): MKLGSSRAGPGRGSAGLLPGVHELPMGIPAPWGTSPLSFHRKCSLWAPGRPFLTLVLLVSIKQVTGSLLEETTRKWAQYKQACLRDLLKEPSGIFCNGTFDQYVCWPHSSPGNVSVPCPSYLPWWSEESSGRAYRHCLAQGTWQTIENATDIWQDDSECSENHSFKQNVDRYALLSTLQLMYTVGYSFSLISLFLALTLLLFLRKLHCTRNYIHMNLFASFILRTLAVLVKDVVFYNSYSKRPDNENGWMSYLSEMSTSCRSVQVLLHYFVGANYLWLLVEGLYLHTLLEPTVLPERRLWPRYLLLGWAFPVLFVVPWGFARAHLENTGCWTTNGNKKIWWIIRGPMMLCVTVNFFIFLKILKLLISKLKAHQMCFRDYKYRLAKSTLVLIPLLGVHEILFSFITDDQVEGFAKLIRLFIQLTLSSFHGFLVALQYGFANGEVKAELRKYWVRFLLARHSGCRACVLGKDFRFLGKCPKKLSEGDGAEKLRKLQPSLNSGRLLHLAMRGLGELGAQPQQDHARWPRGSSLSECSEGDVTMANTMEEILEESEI
Protocol: The functional activity of the peptides were assessed using a HTRF cAMP assay. pEC50 values are quoted.
cAMP production upon agonist stimulation of human GLP2 or GLP1 receptor was assessed utilizing HiRange cAMP kit (Cisbio). In brief, HEK cells were infected with either human GLP2 or GLP1 receptor BacMam virus for 24 hours and frozen for later use in the assay. […] Cells were prepared in the assay buffer (HBSS (Lonza) supplemented with 0.5 mM IBMX (Tocris)). After 45 min incubation at 37° C., the reaction was stopped by addition of the HTRF detection reagents in the lysis buffer provided in the kit.

mouse GLP2 receptor = target: T3, mouse GLP2 receptor (Mus musculus, UniProt Q5IXF8); test: cAMP accumulation assay (HTRF), functional agonism of mouse GLP2 receptor in HEK cells; assay type: cell-based; conditions: HEK293; HEK cells transiently transfected, 45 min 37° C.; read-out: Mouse GLP-2R agonist cAMP Emax
T3 construct: expressed in transfected cells; host or cells: HEK cells, transient transfection with GeneJuice
T3 sequence (Q5IXF8 1-512): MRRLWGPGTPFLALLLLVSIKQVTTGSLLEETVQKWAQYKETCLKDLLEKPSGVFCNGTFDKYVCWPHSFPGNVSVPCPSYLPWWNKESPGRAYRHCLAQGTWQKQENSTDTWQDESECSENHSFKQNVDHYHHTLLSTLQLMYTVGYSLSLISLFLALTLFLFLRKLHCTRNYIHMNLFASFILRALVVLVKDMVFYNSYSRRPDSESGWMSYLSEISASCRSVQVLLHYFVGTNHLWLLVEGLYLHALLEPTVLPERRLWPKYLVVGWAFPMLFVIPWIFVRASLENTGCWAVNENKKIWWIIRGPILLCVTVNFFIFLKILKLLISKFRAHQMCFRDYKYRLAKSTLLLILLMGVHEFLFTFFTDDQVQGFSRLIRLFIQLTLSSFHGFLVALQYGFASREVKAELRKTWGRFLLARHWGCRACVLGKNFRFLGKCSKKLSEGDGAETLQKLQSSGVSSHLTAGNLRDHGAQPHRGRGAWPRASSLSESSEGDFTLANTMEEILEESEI

mouse GLP1 receptor = target: T4, mouse GLP1 receptor (Mus musculus, UniProt O35659); test: cAMP accumulation assay (HTRF), functional agonism of mouse GLP1 receptor in HEK cells; assay type: cell-based; conditions: HEK293; HEK cells transiently transfected, 45 min 37° C.; read-out: Mouse GLP-1 R agonist cAMP Emax
T4 construct: expressed in transfected cells; host or cells: HEK cells, transient transfection with GeneJuice
T4 sequence (O35659 22-463): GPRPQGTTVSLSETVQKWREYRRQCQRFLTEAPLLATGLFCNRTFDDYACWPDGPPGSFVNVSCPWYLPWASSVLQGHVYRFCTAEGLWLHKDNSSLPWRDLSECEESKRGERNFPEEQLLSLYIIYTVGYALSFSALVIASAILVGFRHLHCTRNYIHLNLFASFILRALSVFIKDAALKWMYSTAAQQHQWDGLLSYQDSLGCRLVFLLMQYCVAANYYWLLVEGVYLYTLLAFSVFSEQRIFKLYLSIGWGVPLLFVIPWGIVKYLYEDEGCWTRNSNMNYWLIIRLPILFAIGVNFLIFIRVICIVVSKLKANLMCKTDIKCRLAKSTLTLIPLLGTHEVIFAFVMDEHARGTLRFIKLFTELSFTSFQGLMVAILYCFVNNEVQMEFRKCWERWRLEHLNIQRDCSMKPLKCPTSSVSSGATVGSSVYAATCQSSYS

Emax (human GLP1 receptor) | Emax (human GLP2 receptor) | Emax (mouse GLP2 receptor) | Emax (mouse GLP1 receptor) | EC50 (human GLP1 receptor) | EC50 (human GLP2 receptor) | SMILES
81.1% | 102% | 100% | 83.3% |  |  | C=CCOC(=O)NCCCC[C@H](NC(=O)[C@H](CC(C)C)NC(=O)[C@H](CC(=O)O)NC(=O)[C@H](CC(C)C)NC(=O)[C@@H](NC(=O)[C@@H](NC(=O)[C@@H](Cc1ccccc1)NC(=O)[C@H](CCCC)NC(=O)[C@H](CCC(=O)O)NC(=O)[C@H](CC(=O)O)NC(=O)[C@H](CO)NC(=O)[C@H](Cc1ccccc1)NC(=O)[C@H](CO)NC(=O)[C@H](C)NC(=O)[C@H](Cc1nn[nH]n1)NC(=O)C(C)(C)C(=O)NCCc1c[nH]cn1)[C@@H](C)O)[C@@H](C)CC)C(=O)N[C@@H](C)C(=O)N[C@@H](C)C(=O)N[C@@H](CCCCN)C(=O)N[C@@H](CC(=O)O)C(=O)N[C@@H](Cc1ccccc1)C(=O)N[C@H](C(=O)N[C@@H](CC(N)=O)C(=O)N[C@@H](Cc1c[nH]c2ccccc12)C(=O)N[C@@H](CC(C)C)C(=O)N[C@H](C(=O)N[C@@H](CCC(N)=O)C(=O)N[C@H](C(=O)N[C@@H](CCCCN)C(=O)N[C@H](C(=O)N[C@H](C(=O)N[C@@H](CC(=O)O)C(N)=O)[C@@H](C)O)[C@@H](C)CC)[C@@H](C)O)[C@@H](C)CC)[C@@H](C)CC [Example 12] ({Malonyl(2,2-Me2,histaminyl)}-[Ala(1H-tetrazol-5-yl)]ASFSDE[Nle][dF]TILDLK(Alloc)AAKDFINWLIQTKITD-NH2)
92.7% | 102% |  |  | 2.51 nM | 0.01 nM | C=CCOC(=O)NCCCC[C@H](NC(=O)[C@](C)(CC(C)C)NC(=O)[C@H](CC(=O)O)NC(=O)[C@H](CC(C)C)NC(=O)[C@@H](NC(=O)[C@@H](NC(=O)[C@@H](Cc1ccccc1)NC(=O)[C@H](CCCC)NC(=O)[C@H](CCC(=O)O)NC(=O)[C@H](CC(=O)O)NC(=O)[C@H](CO)NC(=O)[C@H](Cc1ccccc1)NC(=O)[C@H](CO)NC(=O)CNC(=O)[C@H](Cc1nn[nH]n1)NC(=O)C(C)(C)C(=O)NCCc1c[nH]cn1)[C@@H](C)O)[C@@H](C)CC)C(=O)N[C@@H](C)C(=O)N[C@@H](C)C(=O)N[C@@H](CCCCN)C(=O)N[C@@H](CC(=O)O)C(=O)N[C@@H](Cc1ccccc1)C(=O)N[C@H](C(=O)N[C@@H](CC(N)=O)C(=O)N[C@@H](Cc1c[nH]c2ccccc12)C(=O)N[C@@H](CC(C)C)C(=O)N[C@H](C(=O)N[C@@H](CCC(N)=O)C(=O)N[C@H](C(=O)N[C@@H](CCCCN)C(=O)N[C@H](C(=O)N[C@H](C(=O)N[C@@H](CC(=O)O)C(N)=O)[C@@H](C)O)[C@@H](C)CC)[C@@H](C)O)[C@@H](C)CC)[C@@H](C)CC [Example 19] ({Malonyl(2,2-Me2,histaminyl)}-[Ala(1H-tetrazol-5-yl)]GSFSDE[Nle][dF]TILD[αMeL]K(Alloc)AAKDFINWLIQTKITD-NH2)
94.1% | 102% |  |  | 20 nM | 0.0126 nM | C=CCOC(=O)NCCCC[C@H](NC(=O)[C@H](CC(C)C)NC(=O)[C@H](CC(=O)O)NC(=O)[C@H](CC(C)C)NC(=O)[C@@H](NC(=O)[C@@H](NC(=O)[C@@H](Cc1ccccc1)NC(=O)[C@H](CCCC)NC(=O)[C@H](CCC(=O)O)NC(=O)[C@H](CC(=O)O)NC(=O)[C@H](CO)NC(=O)[C@H](Cc1ccccc1)NC(=O)[C@H](CO)NC(=O)CNC(=O)[C@H](Cc1nn[nH]n1)NC(=O)C(C)(C)C(=O)NCCc1c[nH]cn1)[C@@H](C)O)[C@@H](C)CC)C(=O)N[C@@H](C)C(=O)N[C@@H](C)C(=O)NC(C)(C)C(=O)N[C@@H](CC(=O)O)C(=O)N[C@@H](Cc1ccccc1)C(=O)N[C@H](C(=O)N[C@@H](CC(N)=O)C(=O)N[C@@H](Cc1c[nH]c2ccccc12)C(=O)N[C@@H](CC(C)C)C(=O)N[C@H](C(=O)N[C@@H](CCC(N)=O)C(=O)N[C@H](C(=O)N[C@@H](CCCCN)C(=O)N[C@H](C(=O)N[C@H](C(=O)N[C@@H](Cc1ccccc1)C(N)=O)[C@@H](C)O)[C@@H](C)CC)[C@@H](C)O)[C@@H](C)CC)[C@@H](C)CC [Example 9] ({Malonyl(2,2-Me2,histaminyl)}-[Ala(1H-tetrazol-5-yl)]GSFSDE[Nle][dF]TILDLK(Alloc)AA[Aib]DFINWLIQTKITF-NH2)

Continued, compound first:

SMILES | Emax (human GLP1 receptor) | Emax (human GLP2 receptor) | Emax (mouse GLP2 receptor) | Emax (mouse GLP1 receptor) | EC50 (human GLP1 receptor) | EC50 (human GLP2 receptor)
C=CCOC(=O)NCCCC[C@H](NC(=O)[C@H](CC(C)C)NC(=O)[C@H](CC(=O)O)NC(=O)[C@H](CC(C)C)NC(=O)[C@@H](NC(=O)[C@@H](NC(=O)[C@@H](Cc1ccccc1)NC(=O)[C@H](CCCC)NC(=O)[C@H](CCC(=O)O)NC(=O)[C@H](CC(=O)O)NC(=O)[C@H](CO)NC(=O)[C@](C)(Cc1ccccc1)NC(=O)[C@H](CO)NC(=O)[C@@H](C)NC(=O)[C@H](Cc1nn[nH]n1)NC(=O)C(C)(C)C(=O)NCCc1c[nH]cn1)[C@@H](C)O)[C@@H](C)CC)C(=O)NC(C)(C)C(=O)N[C@@H](C)C(=O)N[C@@H](CCCCN)C(=O)N[C@@H](CC(=O)O)C(=O)N[C@@H](Cc1ccccc1)C(=O)N[C@H](C(=O)N[C@@H](CC(N)=O)C(=O)N[C@@H](Cc1c[nH]c2ccccc12)C(=O)N[C@@H](CC(C)C)C(=O)N[C@H](C(=O)N[C@@H](CCC(N)=O)C(=O)N[C@H](C(=O)N[C@@H](CCCCN)C(=O)N[C@H](C(=O)N[C@H](C(=O)N[C@@H](CC(=O)O)C(N)=O)[C@@H](C)O)[C@@H](C)CC)[C@@H](C)O)[C@@H](C)CC)[C@@H](C)CC [Example 11] ({Malonyl(2,2-Me2,histaminyl)}-[Ala(1H-tetrazol-5-yl)][dA]S[αMeF]SDE[Nle][dF]TILDLK(Alloc)[Aib]AKDFINWLIQTKITD-NH2) | 95.4% | 102% |  |  | 1.58 nM | 0.0126 nM
C=CCOC(=O)NCCCC[C@H](NC(=O)[C@H](C)NC(=O)[C@H](C)NC(=O)[C@H](CCCCNC(=O)OCC=C)NC(=O)[C@H](CC(C)C)NC(=O)[C@H](CC(=O)O)NC(=O)[C@H](CC(C)C)NC(=O)C(C)(C)NC(=O)[C@@H](NC(=O)[C@@H](Cc1ccccc1)NC(=O)[C@H](CCCC)NC(=O)[C@H](CCC(=O)O)NC(=O)[C@H](CC(=O)O)NC(=O)[C@H](CO)NC(=O)[C@H](Cc1ccccc1)NC(=O)[C@H](CO)NC(=O)CNC(=O)[C@H](Cc1nn[nH]n1)NC(=O)C(C)(C)C(=O)NCCc1c[nH]cn1)[C@@H](C)O)C(=O)N[C@@H](CC(=O)O)C(=O)N[C@@H](Cc1ccccc1)C(=O)N[C@H](C(=O)N[C@@H](CC(N)=O)C(=O)N[C@@H](Cc1c[nH]c2ccccc12)C(=O)N[C@@H](CC(C)C)C(=O)N[C@H](C(=O)N[C@@H](CCC(N)=O)C(=O)N[C@H](C(=O)N[C@@H](CCCCN)C(=O)N[C@H](C(=O)N[C@H](C(=O)N[C@@H](Cc1ccccc1)C(N)=O)[C@@H](C)O)[C@@H](C)CC)[C@@H](C)O)[C@@H](C)CC)[C@@H](C)CC [Example 6] ({Malonyl(2,2-Me2,histaminyl)}-[Ala(1H-tetrazol-5-yl)]GSFSDE[Nle][dF]T[Aib]LDLK(Alloc)AAK(Alloc)DFINWLIQTKITF-NH2) | 96.4% | 103% |  |  | 10 nM | 0.0316 nM
